# Assay results reported in publication PMC6573034 (Nature Communications, 2019).
# Legend:
# [1] = target: T1, SfMCT (Syntrophobacter fumaroxidans, UniProt A0LNN5); assay: Uptake of [14C]L-lactate and other radiolabeled monocarboxylates into SfMCT expressing E. coli JA202; assay type: cell-based
# T1 construct: expressed in transfected cells; host or cells: E. coli JA202 (MC4100 glcA::cat lldP::kan), plasmid pEXT20-SfMCT-3C-10His
# T1 sequence (A0LNN5 1-412): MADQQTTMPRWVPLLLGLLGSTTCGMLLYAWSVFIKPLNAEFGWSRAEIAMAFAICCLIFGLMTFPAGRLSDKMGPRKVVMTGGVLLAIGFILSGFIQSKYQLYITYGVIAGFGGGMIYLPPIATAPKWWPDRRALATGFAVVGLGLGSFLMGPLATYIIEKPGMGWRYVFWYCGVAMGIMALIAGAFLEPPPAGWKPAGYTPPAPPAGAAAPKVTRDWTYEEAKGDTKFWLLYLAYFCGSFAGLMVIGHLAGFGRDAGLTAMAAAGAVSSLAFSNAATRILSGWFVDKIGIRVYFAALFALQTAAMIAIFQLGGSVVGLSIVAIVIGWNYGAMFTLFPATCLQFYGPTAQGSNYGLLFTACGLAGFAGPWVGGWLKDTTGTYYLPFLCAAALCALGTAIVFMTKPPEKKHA
# Protocol: The cultures were grown at 37 °C and 180 r.p.m. in an incubator shaker (Multitron, Infors HT). Protein expression was induced at OD600 ~0.5 by addition of IPTG to a final concentration of 0.25 mM. After 4 h, bacteria were pelleted (5,200 × g, 10 min, room temperature) and resuspended in uptake buffer (20 mM Bis-Tris propane-HCl (pH 6.7), 250 mM KCl) to a bacteria density of OD600 12. […] Furthermore, [3-3 H] propionic acid sodium salt ([^3H]propionate, American Radiolabeled Chemicals, specific activity 30 Ci/mmol), n-[2,3-3 H] butyric acid sodium salt ([^3H]butyrate, American Radiolabeled Chemicals, specific activity 120 Ci/mmol), and [1–14 C] pyruvic acid sodium salt ([^14C]pyruvate, specific activity 0.055 Ci/mmol American Radiolabeled Chemicals) were also used for transport experiments. […] Uptake experiments were performed in 2 ml reaction tubes (Eppendorf) at 30 °C under agitation (1,000 r.p.m., Thermomixer compact, Eppendorf). […] Bacteria were immediately pelleted by centrifugation (21,000 × g, 4 min, room temperature) and washed two times with 900 μl stop buffer. Finally, bacteria were lyzed in 50 μl 5% (w/v) sodium dodecylsulfate and transferred into a white 96-well plate (Optiplate, PerkinElmer). 150 µl of scintillation cocktail (MicroScint 40, PerkinElmer) were added before measuring each reaction for 2 min with a scintillation counter (TopCount NXT, PerkinElmer). For data analysis, the signal of the empty vector was subtracted from the transporter signal. […] Cpm values of each experiment were normalized with respect to the determined upper plateau value, i.e., the fitted upper plateau value corresponds to 100%. The arithmetic average of three independent experiments was calculated. Three independent and normalized pH-dependence curves were then averaged. For data analysis Prism6 (GraphPad Software) was used. […] Equal amounts of bacteria expressing SfMCT variants were loaded on 14% SDS/polyacrylamide gels. His-tagged transporters were detected using an anti-His5 (Qiagen, catalogue number 34660, primary antibody) at a dilution of 1:3,000 and a goat anti-mouse IgG (H + L) HRP conjugate antibody (Biorad, catalogue number 172-1011, secondary antibody) at a dilution of 1:2,500.
# [2] = system: vector-transformed E. coli JA202; assay: Uptake of radioligands into vector-transformed bacteria; assay type: cell-based
# Protocol: The cultures were grown at 37 °C and 180 r.p.m. in an incubator shaker (Multitron, Infors HT). Protein expression was induced at OD600 ~0.5 by addition of IPTG to a final concentration of 0.25 mM. After 4 h, bacteria were pelleted (5,200 × g, 10 min, room temperature) and resuspended in uptake buffer (20 mM Bis-Tris propane-HCl (pH 6.7), 250 mM KCl) to a bacteria density of OD600 12. […] Furthermore, [3-3 H] propionic acid sodium salt ([^3H]propionate, American Radiolabeled Chemicals, specific activity 30 Ci/mmol), n-[2,3-3 H] butyric acid sodium salt ([^3H]butyrate, American Radiolabeled Chemicals, specific activity 120 Ci/mmol), and [1–14 C] pyruvic acid sodium salt ([^14C]pyruvate, specific activity 0.055 Ci/mmol American Radiolabeled Chemicals) were also used for transport experiments. […] Uptake experiments were performed in 2 ml reaction tubes (Eppendorf) at 30 °C under agitation (1,000 r.p.m., Thermomixer compact, Eppendorf). […] Bacteria were immediately pelleted by centrifugation (21,000 × g, 4 min, room temperature) and washed two times with 900 μl stop buffer. Finally, bacteria were lyzed in 50 μl 5% (w/v) sodium dodecylsulfate and transferred into a white 96-well plate (Optiplate, PerkinElmer). 150 µl of scintillation cocktail (MicroScint 40, PerkinElmer) were added before measuring each reaction for 2 min with a scintillation counter (TopCount NXT, PerkinElmer). For data analysis, the signal of the empty vector was subtracted from the transporter signal. […] Cpm values of each experiment were normalized with respect to the determined upper plateau value, i.e., the fitted upper plateau value corresponds to 100%. The arithmetic average of three independent experiments was calculated. Three independent and normalized pH-dependence curves were then averaged. For data analysis Prism6 (GraphPad Software) was used. The expression of SfMCT variants in E. coli JA202 (MC4100 glcA::cat lldP::kan)[15] was verified by Western blotting. Equal amounts of bacteria expressing SfMCT variants were loaded on 14% SDS/polyacrylamide gels. His-tagged transporters were detected using an anti-His5 (Qiagen, catalogue number 34660, primary antibody) at a dilution of 1:3,000 and a goat anti-mouse IgG (H + L) HRP conjugate antibody (Biorad, catalogue number 172-1011, secondary antibody) at a dilution of 1:2,500.
smiles,measurement,setting,value
C[C@H](O)C(=O)O [L-lactate],Uptake of radioligand by SfMCT (cpm),"[1]; 0.1 µCi radiolabeled monocarboxylate, SfMCT-overexpressing bacteria",10963 cpm
same,Uptake of [14C]L-lactate by SfMCT (cpm),[1]; Time 30 min,8927.33 cpm
same,Net uptake of [14C]L-lactate through SfMCT (cpm),"[1]; Time 30 min, SfMCT minus vector",7196.33 cpm
same,Uptake of [14C]L-lactate,[1]; [L-lactate] 500 µM,253.382 pmol
same,Uptake of [14C]L-lactate,[1]; [L-lactate] 750 µM,287.925 pmol
same,Uptake of radioligand by vector (cpm),"[2]; 0.1 µCi radiolabeled monocarboxylate, vector-transformed bacteria",1768.33 cpm
same,Uptake of [14C]L-lactate by vector (cpm),[2]; Time 5 min,384.333 cpm
same,Uptake of [14C]L-lactate by vector (cpm),[2]; Time 10 min,605.333 cpm
same,Uptake of [14C]L-lactate by vector (cpm),[2]; Time 20 min,1203 cpm
same,Uptake of [14C]L-lactate by vector (cpm),[2]; Time 30 min,1731 cpm
same,Uptake of [14C]L-lactate by vector (cpm),[2]; Time 40 min,2474 cpm
same,Uptake of [14C]L-lactate by vector (cpm),[2]; Time 50 min,3128.67 cpm
same,Uptake of [14C]L-lactate by vector (cpm),[2]; Time 60 min,3938.67 cpm
same,Uptake of [14C]L-lactate by vector (cpm),[2]; Time 75 min,5158 cpm
same,Uptake of [14C]L-lactate by vector (cpm),[2]; Time 90 min,7311.67 cpm
